Results published in US8691761B2, “Somatostatin receptor 2 antagonists” (priority 2006, dated 2014).
Entries after “also recorded” stand apart in the source; their conditions may differ. Bridge positions count the residues as written; N and C are the ends. Square brackets hold non-standard residues; d marks the D form. Peptide text beside a SMILES is read from it. * marks the point of attachment. ξ: configuration not given here. DOTA = O=C(O)CN1CCN(CC(=O)O)CCN(CC(=O)*)CCN(CC(=O)O)CC1; dPhe(4-NHCONH2) = NC(=O)Nc1ccc(C[C@@H](N)C(=O)O)cc1; Phe(4-Cl) = N[C@@H](Cc1ccc(Cl)cc1)C(=O)O; ξDihydroorotoyl = O=C1CC(C(=O)*)NC(=O)N1; 2Nal = N[C@@H](Cc1ccc2ccccc2c1)C(=O)O; ξPhe(4-NH2) = Nc1ccc(CC(N)C(=O)O)cc1

Key:
hSSTR2 = target: T1, hSSTR2 (Homo sapiens, UniProt P30874); experiment: Receptor autoradiography, displacement of 125I-[Leu8,D-Trp22,Tyr25]-SRIF-28 from membrane pellet sections; format: binding
T1 construct: expressed in transfected cells; host or cells: CHO-K1 or CCL39 cells
T1 sequence (P30874 whole entry): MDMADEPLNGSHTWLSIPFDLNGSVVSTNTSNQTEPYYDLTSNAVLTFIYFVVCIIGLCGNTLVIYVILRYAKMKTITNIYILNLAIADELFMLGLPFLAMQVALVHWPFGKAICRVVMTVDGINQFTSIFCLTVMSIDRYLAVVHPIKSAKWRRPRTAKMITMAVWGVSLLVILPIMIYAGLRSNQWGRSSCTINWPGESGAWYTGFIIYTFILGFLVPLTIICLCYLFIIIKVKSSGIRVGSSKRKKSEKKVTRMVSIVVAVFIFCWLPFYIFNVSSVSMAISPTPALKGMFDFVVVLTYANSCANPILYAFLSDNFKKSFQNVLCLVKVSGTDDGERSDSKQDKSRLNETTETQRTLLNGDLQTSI
Experimental: (§1) Generally, recombinant cells expressing the receptor are washed and homogenized to prepare a crude protein homogenate in a suitable buffer. In a typical assay, an amount of protein from the cell homogenate is placed into a small volume of an appropriate assay buffer at an appropriate pH. Candidate substances, such as potential SRIF agonists and antagonists, are added to the admixture in convenient concentrations, and the interaction between the candidate substance and the receptor polypeptide is monitored.
(§2) In vitro Bioassay: The effects of the various somatostatin analogs were tested in vitro for their ability to bind to isolated cloned receptors expressed on CHO-K1 cells and CCL39 cells. The molecular cloning of the genes encoding multiple somatostatin receptor subtypes permitted the individual expression of these receptors in mammalian cells and the characterization of their respective pharmacological profiles.
(§3) CHO-K1 cells were grown in Ham's F-12 medium, and CCL39 cells were grown in Dulbecco's modified Eagle's medium/Ham's F-12(1:1) mix, supplemented with 10% fetal bovine serum, 100 U/ml penicillin and 100 μg/ml streptomycin, in humidified air containing 5% CO2 at 37° C. Cells were washed twice with and scraped into ice-cold 0.05 M Tris-HCl (pH 7.4), collected by centrifugation, and homogenized using a rotor/stator/system in the same buffer. After centrifugation at 120 g for 5 min at 4° C., the supernatant was collected and centrifuged again at 48,000 g for 30 min at 4° C. The resulting pellet was resuspended in ice-cold Tris buffer, transferred into a microfuge tube, and centrifuged at 20,000 g for 15 min at 4° C. After withdrawal of the supernatant, the membrane pellet was stored at −80° C.
(§4) Receptor autoradiography was performed on 20 μm thick cryostat sections of the membrane pellets, mounted on microscope slides, and then stored at −20° C. […] Increasing concentrations of the unlabeled peptide were used ranging from 0.1-1000 nM. […] IC50 values were calculated after quantification of the data using a computer-assisted image processing system as known in this art.
(§5) The numbers in parentheses indicate the number of times the particular binding test was carried out.
(§6) Receptor autoradiography. Cell membrane pellets were prepared as previously described, and stored at −80° C. Receptor autoradiography was performed on 20-μm thick cryostat (Microm HM 500, Walldorf, Germany) sections of the membrane pellets, mounted on microscope slides, and then stored at −20° C. […] After a brief dip in distilled water to remove excess salts, the sections were dried quickly and exposed for 1 week to Kodak BioMax MR film. IC50 values were calculated after quantification of the data using a computer-assisted image processing system as described previously. […] (Reubi, J. C. “In vitro identification of vasoactive intestinal peptide receptors in human tumors: Implications for tumor imaging.” J. Nucl. Med. 1995, 36, 1846-1853).
(§7) To investigate their ssts binding properties, the peptides were tested for their ability to bind to cryostat sections from membrane pellets of cells expressing the five human ssts (Table 3).

HEK-sst2 tumors = settings: mouse, in vivo
Experimental: (§8) The following protocol was used to determine biodistribution
(§9) Confirmation that the transfected tumors were indeed expressing solely sst2 was obtained in resected tumor samples tested in vitro with somatostatin receptor autoradiography using subtype selective ligands.
(§10) The biodistribution of was studied at 4 h or 24 h after injection. The organs of interest were collected, blotted dry, weighed, their radioactivity measured and the percentage of injected activity per gram (% IA/g) calculated.

human sst2A receptor = target: T2, human sst2A receptor (Homo sapiens, UniProt P30874); experiment: Immunofluorescence-based sst2 internalization assay in HEK-sst2 cells; format: cell-based; settings: n ≧ 2
T2 construct: expressed in transfected cells; host or cells: HEK293 (HEK-sst2)
T2 sequence (P30874 whole entry): as above
Experimental: Immunofluorescence-based sst2 Internalization Assay. Immunofluorescence microscopy-based internalization assay for sst2 was performed with HEK-sst2 using the sst2-specific antibody R2-88 as described elsewhere herein. HEK-sst2 cells were treated either with vehicle alone, the sst2 agonist [Tyr^3]-octreotide at a concentration of 100 nM, [Tyr^3]-octreotide at a concentration of 100 nM in the presence of an excess of the SRIF analogues to be tested (100 times the concentration of [Tyr^3]-octreotide), or with the SRIF analogues to be tested alone at a concentration of 10 μM, and then processed for immunofluorescence microscopy as described previously.

sst2 = sst2 (Homo sapiens, UniProt P30874); experiment: Calcium release assay in HEK-sst2 cells (Fluo-4NW); format: cell-based; set-up: expressed in transfected cells; host or cells: HEK293 (HEK-sst2); settings: n ≧ 2
sst2, sequence (P30874 whole entry): as above
Experimental: Calcium release assay. Intracellular calcium release was measured in HEK-sst2 using the Fluo-4NW Calcium Assay kit as described previously (Magrys, et al. “The role of anti-alpha-enolase autoantibodies in pathogenicity of autoimmune-mediated retinopathy.” J. Clin. Immunol. 2007, 27, 181-192; Michel et al. “The Nef protein of human immunodeficiency virus is a broad-spectrum modulator of chemokine receptor cell surface levels that acts independently of classical motifs for receptor endocytosis and Galphai signaling.” Mol. Biol. Cell. 2006, 17, 3578-3590). In brief, HEK-sst2 cells were seeded (25,000 cells per well) in poly-D-lysine (20 μg/mL) coated 96 well plates and cultured for 1 day at 37° C. and 5% CO2 in culture medium. At the day of the experiment, the cells were washed with assay buffer (1×HBSS, 20 mM HEPES) containing 2.5 mM probenecid, and then loaded with 100 μL/well Fluo-4NW dye in assay buffer containing 2.5 mM probenecid for 30 min at 37° C. and 5% CO2 and then for further 30 min at room temperature. To measure the intracellular calcium mobilization after stimulation with the SRIF analogues to be tested, the dye-loaded cells were transferred to a SpectraMax M2^e (Molecular Devices, Sunnyvale, Calif.). Intracellular calcium mobilization was recorded in a kinetic for 60 sec at room temperature monitoring fluorescence emission at 520 nm (with λex=485 nm) in the presence of the analogues at the concentrations indicated. Maximum fluorescence (Fmax) was measured after the addition of 25 μM ionomycin. Baseline (control) measurements were taken for dye-loaded, untreated cells. Data are shown as percentage of Fmax (% Fmax) as reported previously. (Magrys, et al. J. Clin. Immunol. 2007, 27, 181-192; Michel et al. Mol. Biol. Cell. 2006, 17, 3578-3590). All experiments were repeated at least three times in triplicate.

in vivo = settings: female, athymic nude, mouse, iv, total radioactivity, biodistribution
Experimental: as §8, §9, §10

hSSTR5 = target: T3, hSSTR5 (Homo sapiens, UniProt P35346); experiment: Receptor autoradiography, displacement of 125I-[Leu8,D-Trp22,Tyr25]-SRIF-28 from membrane pellet sections; format: binding; settings: Table 3; mean ± SEM when N ≧ 3; read-out: sst5 binding affinity (IC50)
T3 construct: expressed in transfected cells; host or cells: CHO-K1 or CCL39 cells
T3 sequence (P35346 whole entry): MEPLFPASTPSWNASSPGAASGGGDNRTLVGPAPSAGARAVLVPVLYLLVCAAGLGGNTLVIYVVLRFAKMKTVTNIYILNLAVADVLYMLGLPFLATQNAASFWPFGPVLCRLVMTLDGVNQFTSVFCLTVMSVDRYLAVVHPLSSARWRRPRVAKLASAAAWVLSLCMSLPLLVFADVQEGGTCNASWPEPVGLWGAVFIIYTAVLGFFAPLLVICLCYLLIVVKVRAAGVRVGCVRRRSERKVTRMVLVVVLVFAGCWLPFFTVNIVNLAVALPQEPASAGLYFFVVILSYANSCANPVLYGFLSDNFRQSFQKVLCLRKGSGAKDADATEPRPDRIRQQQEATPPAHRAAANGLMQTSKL
Experimental: as §1, §2, §3, §4, §5, §6, §7

hSSTR4 = target: T4, hSSTR4 (Homo sapiens, UniProt P31391); experiment: as above; format: binding; settings: Table 3; mean ± SEM when N ≧ 3; read-out: sst4 binding affinity (IC50)
T4 construct: expressed in transfected cells; host or cells: CHO-K1 or CCL39 cells
T4 sequence (P31391 whole entry): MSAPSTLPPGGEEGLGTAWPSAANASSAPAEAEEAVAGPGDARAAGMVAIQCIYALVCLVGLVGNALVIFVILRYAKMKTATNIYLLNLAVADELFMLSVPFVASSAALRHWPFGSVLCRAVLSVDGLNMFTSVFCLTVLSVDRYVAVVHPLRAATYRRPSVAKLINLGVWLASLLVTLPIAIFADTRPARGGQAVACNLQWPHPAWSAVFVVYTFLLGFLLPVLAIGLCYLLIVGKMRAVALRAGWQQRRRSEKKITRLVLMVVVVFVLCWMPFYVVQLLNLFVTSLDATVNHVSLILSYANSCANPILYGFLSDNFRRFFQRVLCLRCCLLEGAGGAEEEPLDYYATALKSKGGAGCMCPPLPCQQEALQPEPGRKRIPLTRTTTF
Experimental: as §1, §2, §3, §4, §5, §6, §7

hSSTR1 = target: T5, hSSTR1 (Homo sapiens, UniProt P30872); experiment: as above; format: binding; settings: Table 3; mean ± SEM when N ≧ 3; read-out: sst1 binding affinity (IC50)
T5 construct: expressed in transfected cells; host or cells: CHO-K1 or CCL39 cells
T5 sequence (P30872 whole entry): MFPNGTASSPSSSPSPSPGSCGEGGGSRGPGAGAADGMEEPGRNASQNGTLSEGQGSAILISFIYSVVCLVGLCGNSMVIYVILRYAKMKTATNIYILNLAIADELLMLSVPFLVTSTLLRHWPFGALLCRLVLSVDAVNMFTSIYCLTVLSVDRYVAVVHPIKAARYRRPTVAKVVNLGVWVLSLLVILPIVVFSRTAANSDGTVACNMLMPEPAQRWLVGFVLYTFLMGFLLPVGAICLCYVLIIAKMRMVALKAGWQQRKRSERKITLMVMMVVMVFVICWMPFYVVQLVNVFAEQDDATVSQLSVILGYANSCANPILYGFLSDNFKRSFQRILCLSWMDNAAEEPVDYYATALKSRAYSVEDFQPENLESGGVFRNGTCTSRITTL
Experimental: as §1, §2, §3, §4, §5, §6, §7

hSSTR3 = target: T6, hSSTR3 (Homo sapiens, UniProt P32745); experiment: as above; format: binding; settings: Table 3; mean ± SEM when N ≧ 3; read-out: sst3 binding affinity (IC50)
T6 construct: expressed in transfected cells; host or cells: CHO-K1 or CCL39 cells
T6 sequence (P32745 whole entry): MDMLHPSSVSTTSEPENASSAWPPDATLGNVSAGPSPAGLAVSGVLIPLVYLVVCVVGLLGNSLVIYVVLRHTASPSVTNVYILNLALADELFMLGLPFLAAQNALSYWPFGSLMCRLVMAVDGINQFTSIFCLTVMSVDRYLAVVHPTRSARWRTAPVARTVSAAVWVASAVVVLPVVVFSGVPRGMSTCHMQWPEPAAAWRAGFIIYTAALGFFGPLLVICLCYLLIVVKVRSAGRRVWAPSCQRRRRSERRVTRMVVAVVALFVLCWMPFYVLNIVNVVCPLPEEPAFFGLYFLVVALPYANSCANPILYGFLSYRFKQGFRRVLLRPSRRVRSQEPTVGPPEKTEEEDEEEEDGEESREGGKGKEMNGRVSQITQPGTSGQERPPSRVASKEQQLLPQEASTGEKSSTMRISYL
Experimental: as §1, §2, §3, §4, §5, §6, §7

| sst2 binding affinity relative to SRIF-28 (hSSTR2) | tumor to kidney ratio (in words) (HEK-sst2 tumors) | Calcium release tested in vitro in HEK-sst2 cells (function) (sst2) | IC50 (hSSTR5) | IC50 (hSSTR4) | IC50 (hSSTR1) | IC50 (hSSTR3) | IC50 (hSSTR2; Table 3, mean ± SEM when N ≧ 3, read-out: sst2 binding affinity (IC50)) | Compound | sst2-internalization tested in vitro in HEK-sst2 cells (function) (human sst2A receptor) | biodistribution, kidney (HEK-sst2 tumors; female, athymic nude, iv, 4 h) | biodistribution, spleen (HEK-sst2 tumors; female, athymic nude, iv, 4 h) | tissue uptake at 4 h (in vivo; adrenal) | tissue uptake at 4 h (in vivo; blood) | tissue uptake at 4 h (in vivo; bone) | tissue uptake at 4 h (in vivo; heart) | tissue uptake at 4 h (in vivo; liver) | tissue uptake at 4 h (in vivo; muscle) | tissue uptake at 4 h (in vivo; pancreas) | tissue uptake at 4 h (in vivo; pituitary) | tissue uptake at 4 h (in vivo; sst2 tumor) |
| --- | --- | --- | --- | --- | --- | --- | --- | --- | --- | --- | --- | --- | --- | --- | --- | --- | --- | --- | --- | --- |
| three to four-fold greater | excellent tumor to kidney ratio | Antagonist | – | – | – | – | – | C[C@@H](O)[C@@H]1NC(=O)[C@H](CCCCN)NC(=O)[C@@H](Cc2ccc(NC(N)=O)cc2)NC(=O)C(Cc2ccc(NC(=O)C3CC(=O)NC(=O)N3)cc2)NC(=O)[C@H](NC(=O)[C@H](Cc2ccc(Cl)cc2)NC(=O)CN2CCN(CC(=O)O)CCN(CC(=O)O)CCN(CC(=O)O)CC2)CSSC[C@@H](C(=O)N[C@H](Cc2ccc(O)cc2)C(N)=O)NC1=O (stereo partly drawn) [Peptide No. 31, DOTA-Cpa-c[DCys-Aph(Hor)-DAph(Cbm)-Lys-Thr-Cys]-DTyr-NH2] ({DOTA}-[Phe(4-Cl)][dC][ξPhe(4-NH2)](ξDihydroorotoyl)[dPhe(4-NHCONH2)]KTC[dY]-NH2; disulfide 2-7) | antagonistic property; also recorded: Antagonist | – | – | – | – | – | – | – | – | – | – | – |
| – | – | – | – | – | – | – | – | C[C@@H](O)[C@@H]1NC(=O)[C@H](CCCCN)NC(=O)[C@@H](Cc2ccc(NC(N)=O)cc2)NC(=O)[C@H](Cc2ccc(O)cc2)NC(=O)[C@H](NC(=O)[C@H](Cc2ccc(Cl)cc2)NC(=O)CN2CCN(CC(=O)O)CCN(CC(=O)O)CCN(CC(=O)O)CC2)CSSC[C@@H](C(=O)N[C@@H](Cc2ccc3ccccc3c2)C(N)=O)NC1=O [^111In-labelled Peptide No. 28, metal not drawn] ({DOTA}-[Phe(4-Cl)][dC]Y[dPhe(4-NHCONH2)]KTC[2Nal]-NH2; disulfide 2-7) | – | 6.95 % IA/g | 0.36 % IA/g | 0.21 %ID/g | 0.19 %ID/g | 0.16 %ID/g | 0.12 %ID/g | 0.88 %ID/g | 0.06 %ID/g | 2.41 %ID/g | 0.21 %ID/g | 2.36 %ID/g |
| – | – | Antagonist | > 1000 nM | 287 ± 27 nM | > 1000 nM | > 1000 nM | 1.5 nM | C[C@@H](O)[C@@H]1NC(=O)[C@H](CCCCN)NC(=O)[C@@H](Cc2c[nH]c3ccccc23)NC(=O)[C@H](Cc2ccc(O)cc2)NC(=O)[C@H](NC(=O)[C@H](Cc2ccc([N+](=O)[O-])cc2)NC(=O)CN2CCN(CC(=O)O)CCN(CC(=O)O)CCN(CC(=O)O)CC2)CSSC[C@@H](C(=O)N[C@H](Cc2ccc(O)cc2)C(N)=O)NC1=O [compound 2, DOTA-pNO2Phe-c[DCys-Tyr-DTrp-Lys-Thr-Cys]-DTyr-NH2] | Antagonist | – | – | – | – | – | – | – | – | – | – | – |
